US10870660B2, “Nitrogen-containing condensed ring compounds having dopamine D3 antagonistic effect” (Shionogi & Co., Ltd., priority 2016, dated 2020)

How the values were obtained:
[1] = tested on: Male Crl: WI rats; assay: Effect of suppressing impulsivity in rat (T-maze delayed large reward choice, i.p.); assay type: in vivo; conditions: 3 mg/kg, daily over 5 days, tested 40 min after administration, compared with vehicle control group
Description: Male Crl: WI rats were obtained at post-natal day 14 and weaning was occurred at post-natal day 21. Starting from then, the rats were housed 2-3 per cage and food-restricted (Day 1). The feeding amount was 5 g/day at post-natal day 21-28 (Day 1-8), 8.5 g/day at post-natal day 29-32 (Day 9-12), and 10 g/day at post-natal day 33-36 (Day 13-16), preventing their body weight from being 60% or less of the weight of the free feeding rats.
4 days after the beginning of the food restriction (Day 5), pellets were put on goal boxes located in the left-side and the right-side of T-maze. Then, the rats were allowed to freely explore the T-maze-box for 5 min to get habituated to the T-maze box and learn that the pellets were put on the goal boxes located in the left-side and the right-side. For 4 consecutive days from the next day (Day 6-9), one pellet (20 mg×1) was put in one side of the goal box as a small reward, and 5 pellets (20 mg×5) were put in the other side of the goal box as a large reward, and the rats were trained to learn their positions. Each rat underwent 10-trial per day trainings. […] The evaluations of the drug efficacy were started on Day 12. The compounds of the present invention were dissolved in distilled water containing 3% of 1 mol/L hydrochloric acid and administered i.p. to the trained rats to attain the dose of 1, 3 or 10 mg/kg. […]

[2] = molecular target: human recombinant dopamine D3 receptor (Homo sapiens (Human), UniProt P35462); assay: Test of binding inhibition for the human dopamine D3 receptor ([3H]-Metylspiperone SPA binding); conditions: [3H]-Metylspiperone 2 nM, Jump-In HEK cell membranes, read-out: hD3_Ki
[3] = molecular target: human recombinant dopamine D2 receptor (Homo sapiens (Human), UniProt P14416); assay: Test of binding inhibition for the human dopamine D2 receptor ([3H]-Metylspiperone SPA binding); conditions: [3H]-Metylspiperone 1.2 nM, Jump-In HEK cell membranes, read-out: hD2_Ki
Summary of the method: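 Scintillation proximity binding with HEK membranes expressing human D2 receptor (2 μg/well), 1.2 nM [3H]-methylspiperone, in Tris-HCl pH 7.4 with NaCl, MgCl2, KCl and CaCl2; 120 min at 25° C.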

Chain of human recombinant dopamine D3 receptor (P35462 whole entry): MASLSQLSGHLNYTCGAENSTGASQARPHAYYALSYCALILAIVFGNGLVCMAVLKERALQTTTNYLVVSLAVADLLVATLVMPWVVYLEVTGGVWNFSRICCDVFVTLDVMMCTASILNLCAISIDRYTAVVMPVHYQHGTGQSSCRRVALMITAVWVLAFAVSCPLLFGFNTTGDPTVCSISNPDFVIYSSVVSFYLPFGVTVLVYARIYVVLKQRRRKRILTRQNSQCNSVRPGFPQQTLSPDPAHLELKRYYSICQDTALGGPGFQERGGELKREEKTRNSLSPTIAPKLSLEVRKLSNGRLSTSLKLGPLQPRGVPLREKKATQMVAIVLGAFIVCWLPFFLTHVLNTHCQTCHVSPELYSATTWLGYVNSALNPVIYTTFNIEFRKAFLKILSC
Chain of human recombinant dopamine D2 receptor (P14416 whole entry): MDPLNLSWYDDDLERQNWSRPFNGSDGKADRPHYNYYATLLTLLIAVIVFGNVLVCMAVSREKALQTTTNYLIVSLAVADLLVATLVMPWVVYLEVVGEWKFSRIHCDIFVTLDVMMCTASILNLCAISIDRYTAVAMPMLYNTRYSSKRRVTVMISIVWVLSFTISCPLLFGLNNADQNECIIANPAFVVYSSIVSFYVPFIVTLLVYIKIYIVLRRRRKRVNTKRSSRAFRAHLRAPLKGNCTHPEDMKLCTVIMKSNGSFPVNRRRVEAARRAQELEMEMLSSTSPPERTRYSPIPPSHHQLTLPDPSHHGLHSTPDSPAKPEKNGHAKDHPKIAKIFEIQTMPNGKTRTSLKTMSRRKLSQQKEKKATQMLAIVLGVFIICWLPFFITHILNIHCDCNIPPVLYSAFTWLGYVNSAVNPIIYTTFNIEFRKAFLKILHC

Row | Structure (SMILES) | number of choices of the large reward during total 50 trials of 5 days [1] | Ki [2] | Ki [3]
1 | O=C(N[C@H]1CC[C@H](CCN2CCc3sc(OCC(F)F)nc3C2)CC1)c1cccc2ncccc12 [Compound I-085] | significantly increased |  | 
2 | Cn1cc2c(C(=O)N[C@H]3CC[C@H](CCN4CCc5sc(CCC(F)F)nc5C4)CC3)cccc2n1 [III-685] |  | 0.1 nM | 280 nM
3 | Cn1ncc(CC(=O)N[C@H]2CC[C@H](CCN3CCc4sc(OCC(C)(F)F)nc4C3)CC2)c1F [III-548] |  | 0.46 nM | 830 nM
4 | Cn1cc(CC(=O)N[C@H]2CC[C@H](CCN3CCc4sc(OCC(F)F)nc4C3)CC2)cn1 [Compound I-108] |  | 1.5 nM | 1400 nM
5 | CCn1c(C(=O)N[C@H]2CC[C@H](CCN3CCc4sc(CCC(F)(F)F)nc4C3)CC2)cccc1=O [III-704] |  | 0.51 nM | 380 nM
6 | CC(=O)N[C@H]1CC[C@H](CCN2CCc3nc(OCC(C)(F)F)sc3CC2)CC1 [II-014] |  | 0.45 nM | 230 nM
7 | O=C(N[C@H]1CC[C@H](CCN2CCc3sc(N4CC5CC5C4)nc3C2)CC1)c1cccc2ncccc12 (stereo partly drawn) [Compound I-073] |  | 0.08 nM | > 1700 nM
8 | Cn1ccc2c(C(=O)N[C@H]3CC[C@H](CCN4CCc5sc(OCC(C)(F)F)nc5C4)CC3)cccc2c1=O [III-630] |  | 0.16 nM | > 1900 nM
9 | Cn1c(C(=O)N[C@H]2CC[C@H](CCN3CCc4nc(OCC(F)(F)F)sc4CC3)CC2)cccc1=O [III-128] |  | 0.12 nM | 370 nM
10 | Cn1cc(CC(=O)N[C@H]2CC[C@](F)(CCN3CCc4nc(OCC(F)(F)F)sc4CC3)CC2)cn1 [III-261] |  | 0.57 nM | 480 nM
11 | CC(CF)Oc1nc2c(s1)CCN(CC[C@H]1CC[C@H](NC(=O)c3cccc4nn(C)cc34)CC1)CC2 (stereo partly drawn) [III-159] |  | 0.91 nM | > 1700 nM
12 | Cc1cc(CC(=O)N[C@H]2CC[C@H](CCN3CCc4nc(OCC(F)(F)F)sc4CC3)OC2)on1 [III-171] |  | 0.47 nM | > 1700 nM
13 | CN1Cc2c(C(=O)N[C@H]3CC[C@H](CCN4CCc5sc(CCC(F)(F)F)nc5C4)CC3)cccc2C1=O [III-697] |  | 0.23 nM | 220 nM
14 | Cc1ncccc1C(=O)N[C@H]1CC[C@H](CCN2CCc3sc(OCC(C)(F)F)nc3C2)CC1 [III-555] |  | 0.4 nM | 310 nM
15 | Cc1ncc(CC(=O)N[C@H]2CC[C@H](CCN3CCc4cc(C)c(OCC(F)F)nc4CC3)OC2)s1 [III-008] |  | 0.25 nM | 480 nM
16 | Cn1cc2c(C(=O)N[C@H]3CC[C@H](CCN4CCc5sc(N6CC(F)(F)C6)nc5C4)CC3)cccc2n1 [III-439] |  | 0.29 nM | 500 nM
17 | Cn1cc2c(C(=O)N[C@H]3CC[C@H](CCN4CCc5ccc(OC6CC(F)(F)C6)nc5CC4)CC3)cccc2n1 [III-155] |  | 0.25 nM | > 1700 nM
